Reference: PubChem BioAssay (NCI)
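These data come from cells grown in 96-well plates and exposed to compound for 48 hours at five concentrations. At the TGI there is no net growth.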

Legend:
Assay in all cases: NCI anticancer screen, dose series, 48 h
786-0 renal = test system: 786-0 renal
A498 renal = test system: A498 renal
A549 NSCLC = test system: A549 NSCLC
ACHN renal = test system: ACHN renal
BT-549 breast = test system: BT-549 breast
CAKI-1 renal = test system: CAKI-1 renal
CCRF-CEM leukemia = test system: CCRF-CEM leukemia
COLO 205 colon = test system: COLO 205 colon
DLD-1 colon = test system: DLD-1 colon
DMS 273 small cell lung = test system: DMS 273 small cell lung
DU-145 prostate = test system: DU-145 prostate
EKVX NSCLC = test system: EKVX NSCLC
HCC-2998 colon = test system: HCC-2998 colon
HCT-116 colon = test system: HCT-116 colon
HCT-15 colon = test system: HCT-15 colon
HL-60(TB) leukemia = test system: HL-60(TB) leukemia
HOP-18 NSCLC = test system: HOP-18 NSCLC
HOP-62 NSCLC = test system: HOP-62 NSCLC
HOP-92 NSCLC = test system: HOP-92 NSCLC
HS 578T breast = test system: HS 578T breast
HT29 colon = test system: HT29 colon
IGROV1 ovarian = test system: IGROV1 ovarian
K-562 leukemia = test system: K-562 leukemia
KM12 colon = test system: KM12 colon
KM20L2 colon = test system: KM20L2 colon
LOX IMVI melanoma = test system: LOX IMVI melanoma
LXFL 529 NSCLC = test system: LXFL 529 NSCLC
M14 melanoma = test system: M14 melanoma
M19-MEL melanoma = test system: M19-MEL melanoma
MALME-3M melanoma = test system: MALME-3M melanoma
MDA-MB-231 breast = test system: MDA-MB-231 breast
MDA-N = test system: MDA-N
MOLT-4 leukemia = test system: MOLT-4 leukemia
NCI-H226 lung = test system: NCI-H226 lung
NCI-H23 lung = test system: NCI-H23 lung
NCI-H460 lung = test system: NCI-H460 lung
NCI-H522 lung = test system: NCI-H522 lung
OVCAR-3 ovarian = test system: OVCAR-3 ovarian
OVCAR-4 ovarian = test system: OVCAR-4 ovarian
OVCAR-5 ovarian = test system: OVCAR-5 ovarian
OVCAR-8 ovarian = test system: OVCAR-8 ovarian
PC-3 prostate = test system: PC-3 prostate
RPMI-8226 leukemia = test system: RPMI-8226 leukemia
RXF 393 renal = test system: RXF 393 renal
RXF-631 renal = test system: RXF-631 renal
SF-268 CNS = test system: SF-268 CNS
SF-295 CNS = test system: SF-295 CNS
SF-539 CNS = test system: SF-539 CNS
SK-MEL-2 melanoma = test system: SK-MEL-2 melanoma
SK-MEL-28 melanoma = test system: SK-MEL-28 melanoma
SK-MEL-5 melanoma = test system: SK-MEL-5 melanoma
SK-OV-3 ovarian = test system: SK-OV-3 ovarian
SN12C renal = test system: SN12C renal
SNB-19 CNS = test system: SNB-19 CNS
SNB-75 CNS = test system: SNB-75 CNS
SNB-78 CNS = test system: SNB-78 CNS
SR leukemia = test system: SR leukemia
SW-620 colon = test system: SW-620 colon
T-47D breast = test system: T-47D breast
TK-10 renal = test system: TK-10 renal
U251 CNS = test system: U251 CNS
UACC-257 melanoma = test system: UACC-257 melanoma
UACC-62 melanoma = test system: UACC-62 melanoma
UO-31 renal = test system: UO-31 renal

SMILES: BrCC[N+]12CCCN1CCC2
- TGI (786-0 renal): 22.3 µM
- TGI (A498 renal): > 66.2 µM
- TGI (A549 NSCLC): > 81.8 µM
- TGI (ACHN renal): 14.3 µM
- TGI (BT-549 breast): 31.3 µM
- TGI (CAKI-1 renal): 2.44 µM
- TGI (CCRF-CEM leukemia): 4.87 µM
- TGI (COLO 205 colon): 10.5 µM
- TGI (DLD-1 colon): 14.1 µM
- TGI (DMS 273 small cell lung): 37.1 µM
- TGI (DU-145 prostate): > 100 µM
- TGI (EKVX NSCLC): 38 µM
- TGI (HCC-2998 colon): 54.3 µM
- TGI (HCT-116 colon): 22.8 µM
- TGI (HCT-15 colon): 28.2 µM
- TGI (HL-60(TB) leukemia): 12.9 µM
- TGI (HOP-18 NSCLC): 21.7 µM
- TGI (HOP-62 NSCLC): > 70.5 µM
- TGI (HOP-92 NSCLC): 13.7 µM
- TGI (HS 578T breast): 26.9 µM
- TGI (HT29 colon): 38.2 µM
- TGI (IGROV1 ovarian): 51.1 µM
- TGI (K-562 leukemia): 8.46 µM
- TGI (KM12 colon): > 94.6 µM
- TGI (KM20L2 colon): 42.2 µM
- TGI (LOX IMVI melanoma): 27 µM
- TGI (LXFL 529 NSCLC): 8.59 µM
- TGI (M14 melanoma): 24.7 µM
- TGI (M19-MEL melanoma): 34.1 µM
- TGI (MALME-3M melanoma): 5.2 µM
- TGI (MDA-MB-231 breast): 34 µM
- TGI (MDA-N): 30.2 µM
- TGI (MOLT-4 leukemia): 12.9 µM
- TGI (NCI-H226 lung): 60.8 µM
- TGI (NCI-H23 lung): 36.6 µM
- TGI (NCI-H460 lung): 48.9 µM
- TGI (NCI-H522 lung): 1.71 µM
- TGI (OVCAR-3 ovarian): 30.9 µM
- TGI (OVCAR-4 ovarian): 10.7 µM
- TGI (OVCAR-5 ovarian): 40 µM
- TGI (OVCAR-8 ovarian): 39.3 µM
- TGI (PC-3 prostate): 31.2 µM
- TGI (RPMI-8226 leukemia): 8.38 µM
- TGI (RXF 393 renal): 29.2 µM
- TGI (RXF-631 renal): 46.4 µM
- TGI (SF-268 CNS): 58.9 µM
- TGI (SF-295 CNS): > 100 µM
- TGI (SF-539 CNS): 32.9 µM
- TGI (SK-MEL-2 melanoma): 48.4 µM
- TGI (SK-MEL-28 melanoma): 26.5 µM
- TGI (SK-MEL-5 melanoma): 34.3 µM
- TGI (SK-OV-3 ovarian): > 93.3 µM
- TGI (SN12C renal): 29.3 µM
- TGI (SNB-19 CNS): > 77 µM
- TGI (SNB-75 CNS): 32 µM
- TGI (SNB-78 CNS): 37.5 µM
- TGI (SR leukemia): 6.8 µM
- TGI (SW-620 colon): 7.39 µM
- TGI (T-47D breast): 35.2 µM
- TGI (TK-10 renal): 27.9 µM
- TGI (U251 CNS): 32.7 µM
- TGI (UACC-257 melanoma): 37.2 µM
- TGI (UACC-62 melanoma): 20.5 µM
- TGI (UO-31 renal): 39.2 µM
